From patent publication US11059780B2, “Substituted pyrrolidine compound and use thereof” (Takeda Pharmaceutical Company Limited, priority 2017, dated 2021)

Target: T1, human orexin type 2 receptor (hOX2R) (Homo sapiens, UniProt O43614)
T1 construct: expressed in transfected cells
T1 sequence (O43614 1-444): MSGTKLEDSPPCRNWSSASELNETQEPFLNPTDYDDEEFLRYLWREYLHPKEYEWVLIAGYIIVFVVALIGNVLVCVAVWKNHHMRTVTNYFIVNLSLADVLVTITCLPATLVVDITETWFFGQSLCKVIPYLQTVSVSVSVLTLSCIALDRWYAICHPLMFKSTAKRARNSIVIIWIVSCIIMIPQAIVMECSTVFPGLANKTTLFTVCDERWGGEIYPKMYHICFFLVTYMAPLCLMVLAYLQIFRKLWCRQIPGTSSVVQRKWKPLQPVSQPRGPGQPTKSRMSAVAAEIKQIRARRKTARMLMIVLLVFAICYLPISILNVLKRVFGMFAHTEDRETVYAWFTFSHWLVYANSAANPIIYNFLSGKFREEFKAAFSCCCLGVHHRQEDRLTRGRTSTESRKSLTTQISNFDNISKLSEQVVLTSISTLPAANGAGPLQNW
Test: Measurement of orexin type 2 receptor agonist activity (Fluo-4 calcium fluorescence, CHO cells forcibly expressing human OX2 receptor)
Format: cell-based
Details: test compound 3 μM, DMSO = 0%, orexin A (human) 10 nM = 100%
Method in brief: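 CHO-dhfr cells stably expressing human OX2 receptor, loaded with Fluo-4 AM in HBSS/HEPES/BSA with probenecid, then given test compound at 3 μM. Calcium fluorescence recorded for about 2 min 40 s by FDSS; activity normalized to DMSO (0%) and 10 nM human orexin A (100%).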

Row | Structure (SMILES) | OX2R agonist activity (3 μM, %)
1 | COC1CN(C(=O)c2cc(C)ccc2C)CC1Oc1cccc(NS(=O)(=O)N2CC[C@@H]3C[C@H]32)c1 (relative stereo) [Example 72, trans-N-(3-((1-(2,5-dimethylbenzoyl)-4-methoxypyrrolidin-3-yl)oxy)phenyl)-2-azabicyclo[3.1.0]hexane-2-sulfonamide] | 74%
2 | CO[C@@H]1CN(C(=O)c2c(C)cccc2C2CC2)C[C@H]1Oc1cccc(NS(=O)(=O)N(C)C2CCOCC2)c1 (relative stereo) [Example 165, trans-N′-(3-((1-(2-cyclopropyl-6-methylbenzoyl)-4-methoxypyrrolidin-3-yl)oxy)phenyl)-N-methyl-N-(tetrahydro-2H-pyran-4-yl)sulfuric diamide] | 108%
3 | CCc1cccc(C)c1C(=O)N1C[C@@H](OC)[C@H](Oc2cccc(CS(=O)(=O)N(C)[C@@H]3C[C@H]4CC[C@@H](C3)O4)c2)C1 [Example 149, 1-(3-(((3R,4R)-1-(2-ethyl-6-methylbenzoyl)-4-methoxypyrrolidin-3-yl)oxy)phenyl)-N-methyl-N-((3-exo)-8-oxabicyclo[3.2.1]oct-3-yl)methanesulfonamide] | 110%
4 | COc1ccc(C)c(C)c1C(=O)N1C[C@@H](OC)[C@H](Oc2cccc(CS(=O)(=O)N(C)C3CCOCC3)c2)C1 (relative stereo) [Example 162, trans-1-(3-((4-methoxy-1-(6-methoxy-2,3-dimethylbenzoyl)pyrrolidin-3-yl)oxy)phenyl)-N-methyl-N-(tetrahydro-2H-pyran-4-yl)methanesulfonamide] | 96%
5 | CO[C@@H]1CN(C(=O)c2ccccc2C2CC2)C[C@H]1Oc1cccc(CS(=O)(=O)N(C)C2CCOCC2)c1 (relative stereo) [Example 153, trans-1-(3-((1-(2-cyclopropylbenzoyl)-4-methoxypyrrolidin-3-yl)oxy)phenyl)-N-methyl-N-(tetrahydro-2H-pyran-4-yl)methanesulfonamide] | 105%
6 | CO[C@@H]1CN(C(=O)c2cc(C)ccc2C)C[C@H]1Oc1cccc(NS(=O)(=O)N2CCOCC2)c1 (relative stereo) [Example 4, trans-N-(3-((1-(2,5-dimethylbenzoyl)-4-methoxypyrrolidin-3-yl)oxy)phenyl)morpholine-4-sulfonamide] | 87%
7 | CO[C@@H]1CN(C(=O)C2(c3ccccc3)CCC2)C[C@H]1Oc1cccc(CS(=O)(=O)N(C)C2CCOCC2)c1 (relative stereo) [Example 147, trans-1-(3-((4-methoxy-1-((1-phenylcyclobutyl)carbonyl)pyrrolidin-3-yl)oxy)phenyl)-N-methyl-N-(tetrahydro-2H-pyran-4-yl)methanesulfonamide] | 37%
8 | CO[C@@H]1CN(C(=O)c2cc(C)ccc2C)C[C@H]1Oc1cccc(NS(=O)(=O)N2CCC3(COC3)C2)c1 (relative stereo) [Example 70, trans-N-(3-((1-(2,5-dimethylbenzoyl)-4-methoxypyrrolidin-3-yl)oxy)phenyl)-2-oxa-6-azaspiro[3.4]octane-6-sulfonamide] | 90%
9 | COc1cccc(C)c1C(=O)N1C[C@@H](OC)[C@H](Oc2cccc(NS(=O)(=O)N(C)C)c2)C1 [Example 135, N′-(3-(((3R,4R)-4-methoxy-1-(2-methoxy-6-methylbenzoyl)pyrrolidin-3-yl)oxy)phenyl)-N,N-dimethylsulfuric diamide] | 90%
10 | CO[C@@H]1CN(C(=O)c2cc(C)ccc2C)C[C@H]1Oc1cccc(CS(=O)(=O)N2CCC23CCOCC3)c1 (relative stereo) [Example 21, trans-(2,5-dimethylphenyl)(3-methoxy-4-(3-((7-oxa-1-azaspiro[3.5]non-1-ylsulfonyl)methyl)phenoxy)pyrrolidin-1-yl)methanone] | 70%
11 | CCc1cccc(C)c1C(=O)N1C[C@@H](OC)[C@H](Oc2cccc(NS(=O)(=O)N3CC4CC4C3)c2)C1 (stereo partly drawn) [Example 134, N-(3-(((3R,4R)-1-(2-ethyl-6-methylbenzoyl)-4-methoxypyrrolidin-3-yl)oxy)phenyl)-3-azabicyclo[3.1.0]hexane-3-sulfonamide] | 108%
12 | CO[C@@H]1CN(C(=O)c2cc(C)ccc2C)C[C@H]1Oc1cccc(CS(=O)(=O)N(C)c2ccncc2)c1 (relative stereo) [Example 7, trans-1-(3-((1-(2,5-dimethylbenzoyl)-4-methoxypyrrolidin-3-yl)oxy)phenyl)-N-methyl-N-(pyridin-4-yl)methanesulfonamide] | 32%
13 | COc1cccc(C)c1C(=O)N1C[C@@H](OC)[C@H](Oc2cccc(CS(=O)(=O)N3CCCC3c3ccccn3)c2)C1 (relative stereo) [Example 119, trans-(2-methoxy-6-methylphenyl)(3-methoxy-4-(3-(((2-(pyridin-2-yl)pyrrolidin-1-yl)sulfonyl)methyl)phenoxy)pyrrolidin-1-yl)methanone] | 100%
14 | COC(=O)C1COCCN1S(=O)(=O)Cc1cccc(O[C@@H]2CN(C(=O)c3cc(C)ccc3C)C[C@H]2OC)c1 (relative stereo) [Example 12, methyl trans-4-((3-((1-(2,5-dimethylbenzoyl)-4-methoxypyrrolidin-3-yl)oxy)benzyl)sulfonyl)morpholine-3-carboxylate] | 60%
15 | COC1CN(C(=O)c2cc(C)ccc2C)CC1Oc1cc(NS(=O)(=O)N2C[C@@H]3C[C@H]3C2)cc(C)n1 (relative stereo) [Example 117, trans-N-(2-((1-(2,5-dimethylbenzoyl)-4-methoxypyrrolidin-3-yl)oxy)-6-methylpyridin-4-yl)-3-azabicyclo[3.1.0]hexane-3-sulfonamide] | 93%
16 | CO[C@@H]1CN(C(=O)c2cc(C)ccc2C)C[C@H]1Oc1cccc(NS(=O)(=O)N(C)C2CCOCC2)c1 (relative stereo) [Example 47, trans-N′-(3-((1-(2,5-dimethylbenzoyl)-4-methoxypyrrolidin-3-yl)oxy)phenyl)-N-methyl-N-(tetrahydro-2H-pyran-4-yl)sulfuric diamide] | 106%
17 | COc1nccc(C)c1C(=O)N1C[C@@H](OC)[C@H](Oc2cccc(CS(=O)(=O)N(C)C3CCOCC3)c2)C1 (relative stereo) [Example 161, trans-1-(3-((4-methoxy-1-((2-methoxy-4-methylpyridin-3-yl)carbonyl)pyrrolidin-3-yl)oxy)phenyl)-N-methyl-N-(tetrahydro-2H-pyran-4-yl)methanesulfonamide] | 102%
18 | CCc1cccc(C)c1C(=O)N1C[C@@H](OC)[C@H](Oc2cccc(C(F)(F)S(=O)(=O)N(C)C3CCOCC3)c2)C1 (relative stereo) [Example 150, trans-1-(3-((1-(2-ethyl-6-methylbenzoyl)-4-methoxypyrrolidin-3-yl)oxy)phenyl)-1,1-difluoro-N-methyl-N-(tetrahydro-2H-pyran-4-yl)methanesulfonamide] | 43%
19 | CO[C@@H]1CN(C(=O)c2cc(C)ccc2C)C[C@H]1Oc1cccc(C(C)S(=O)(=O)N(C)C2CCOCC2)c1 (relative stereo) [Example 143, trans-1-(3-((1-(2,5-dimethylbenzoyl)-4-methoxypyrrolidin-3-yl)oxy)phenyl)-N-methyl-N-(tetrahydro-2H-pyran-4-yl)ethanesulfonamide] | 92%
20 | CO[C@@H]1CN(C(=O)c2c(C)cccc2C2CC2)C[C@H]1Oc1cccc(OS(=O)(=O)N2CCOCC2)c1 (relative stereo) [Example 166, trans-3-((1-(2-cyclopropyl-6-methylbenzoyl)-4-methoxypyrrolidin-3-yl)oxy)phenyl morpholine-4-sulfonate] | 41%
21 | CO[C@@H]1CN(C(=O)c2cc(C)ccc2C)C[C@H]1Oc1cccc(CS(=O)(=O)N2CCCC2c2ccccn2)c1 (relative stereo) [Example 15, trans-(2,5-dimethylphenyl)(3-methoxy-4-(3-(((2-(pyridin-2-yl)pyrrolidin-1-yl)sulfonyl)methyl)phenoxy)pyrrolidin-1-yl)methanone] | 80%
22 | COc1ccccc1C1CCCN1S(=O)(=O)Cc1cccc(O[C@@H]2CN(C(=O)c3cc(C)ccc3C)C[C@H]2OC)c1 (relative stereo) [Example 83, trans-(2,5-dimethylphenyl)(3-methoxy-4-(3-(((2-(2-methoxyphenyl)pyrrolidin-1-yl)sulfonyl)methyl)phenoxy)pyrrolidin-1-yl)methanone] | 75%
23 | CO[C@@H]1CN(C(=O)c2cc(C)ccc2C)C[C@H]1Oc1cccc(NS(=O)(=O)N2CCC(c3cccnc3)C2)c1 (relative stereo) [Example 53, trans-N-(3-((1-(2,5-dimethylbenzoyl)-4-methoxypyrrolidin-3-yl)oxy)phenyl)-3-(pyridin-3-yl)pyrrolidine-1-sulfonamide] | 99%
24 | CO[C@@H]1CN(C(=O)c2cc(C)ccc2C)C[C@H]1Oc1cccc(CS(=O)(=O)N2CCCC2c2cccnc2)c1 (relative stereo) [Example 16, trans-(2,5-dimethylphenyl)(3-methoxy-4-(3-(((2-(pyridin-3-yl)pyrrolidin-1-yl)sulfonyl)methyl)phenoxy)pyrrolidin-1-yl)methanone] | 77%
